Reference: patent US4242330A, “Derivative of aspirin” (The University of Kentucky Research Foundation, priority 1979, dated 1980)

Key:
[1] = rate of generation of aspirin via hydrolysis, determined spectrophotometrically at 285 nm; format: physicochemical; settings: for half-life: buffer, read-out: half-life of hydrolysis to aspirin (t1/2); for half-life / half-life of hydrolysis to aspirin (t1/2): average of three determinations
Procedure: Therefore, the decrease in absorbance of a solution containing both the prodrug of this invention and aspirin observed at 285 nanometers upon adjustment of the pH to a value of six is proportional to the amount of aspirin in the solution.
Accordingly, the rate of generation of aspirin via hydrolysis of the derivative of the present invention was determined spectrophotometrically at 285 nm. Solutions of 1-O-(2'-acetoxy)benzoyl-α-D-2-deoxyglucopyranose in a buffered solution containing 5 mg/ml were freshly prepared and maintained at constant temperature in a circulating waterbath. […] Buffers employed were hydrochloric acid (pH 1 to 2), citrate (pH 3), acetate (pH 4 to 6) and phosphate (pH 7-9). Ionic strength was adjusted with potassium chloride (usually to 0.1). The change in absorbance at 285 nm was followed until no change in absorbance was observed. First order plots were constructed by plotting log (At -A.infin.) agains time. The effect of pH on the rate of hydrolysis was determined using solutions ranging from pH 1.2 to pH 9.
*Each halflife is the average of three determinations.

[2] = cited from earlier work
[3] = rate of hydrolysis by following the rate of appearance of aspirin in solution by high pressure liquid chromatography; format: physicochemical; settings: HPLC; pH and temperature not given
Procedure: The rate of hydrolysis of 1-O-(2'-acetoxy)benzoyl-α-D-glucopyranose, i.e., the compound of the formula [drawing 4] was determined by following the rate of appearance of aspirin in a solution by high pressure liquid chromatography.

SMILES	half-life ([1]; pH 3, pH 3, 37° C) [min]	half-life ([1]; pH 4.6, pH 4.6, 37° C) [min]	half-life ([1]; pH 8, pH 8, 37° C) [min]	half-life ([1]; pH 9, pH 9, 37° C) [min]	half-life of hydrolysis to aspirin (t1/2) ([1]; pH 6.4, 37° C) [min]	half-life of hydrolysis to aspirin (t1/2) ([1]; pH 8, 37° C) [min]	effect of pH on the generation of aspirin from the derivative ([1]; solutions ranging from pH 1.2 to pH 9)	hydrolysis product ([2]; reaction scheme (II))	rate of hydrolysis to aspirin ([2]; to the extent that hydrolysis to aspirin takes place)	half-life [3] [h]
CC(=O)Oc1ccccc1C(=O)O[C@@H]1C[C@@H](O)[C@H](O)[C@@H](CO)O1 [1-O-(2'-acetoxy)benzoyl-α-D-2-deoxyglucopyranose]	7	7.1	7	7	7.0	7.02	independent of the pH of the solutions			
CC(=O)Oc1ccccc1C(=O)O[C@H]1O[C@H](CO)[C@@H](O)[C@H](O)[C@H]1O [1-O-(2'-acetoxy)benzoyl-α-D-glucopyranose]								tends to hydrolyze so as to form the corresponding sugar derivative of salicylic acid	very slow rate	55
